Results on two compounds are retold here after patent US20040253656A1, “Method for measuring inositol triphosphate” (priority 2003, published 2004).

Structures are written as SMILES.

The test system of test [1] is CHOM1 cells. In words: Cellular assay: IP3 levels in CHOM1 cells after carbachol, measured by scintillation proximity assay. The format is cell-based. Particulars: 20 mM LiCl, Carbachol 0.01 mM to 100 mM, 1 minute, FIG. 3. As to the method:
Standard curves were generated, by displacing labelled IP3, using a range of known concentrations of unlabelled IP3. Reactions were conducted in 96 well Corning NBS microplates in a total volume of […]. The assays were carried out using 10 mMTris/[…] pH 7.0 containing 400 ng of the biotinylated GST-tagged PLC, protein, 10 nCi [^3H] IP3 (spec activity 23.0 Ci/mmol, Amersham), and 1 mg of streptavidin coated PVT beads. Plates were incubated on ice for 2 hours and the plates then read using a Microbeta microplate scintillation counter. Standard curves were also run in the presence of dodecyl trimethyl ammonium bromide (DTAB; lysis reagent 1) and alpha-cyclodextrin (lysis reagent 2) at final concentrations of 0.3% lysis solution 1 and 2% lysis reagent 2 (FIG. 2).
Cells (CHOM1; 2×10^5) were seeded onto a 24 well tissue culture plate and grown overnight at 37° C., 95/5% (air/CO2). Following overnight incubation, media were aspirated and the cells were washed 1× with PBS (phosphate buffered saline). Fresh media were added containing 20 mM LiCl (final concentration of lithium chloride) and the cells were incubated for 30 minutes at 37° C. in a humidified atmosphere (95/5%, air/CO2). […] The plate was incubated on ice for approximately 16 hours and the plate counted using a Microbeta microplate scintillation counter at 1 minute/well.

Test [2] concerns the target T1, PLCδ1/PH domain (Homo sapiens, UniProt P51178).
T1 sequence (P51178 21-130 limits assumed): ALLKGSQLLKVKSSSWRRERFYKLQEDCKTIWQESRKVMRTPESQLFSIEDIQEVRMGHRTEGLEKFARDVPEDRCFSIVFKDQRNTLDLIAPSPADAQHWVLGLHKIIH
The conditions noted are these: Lemmon & Ferguson (2001), read-out: affinity for IP3; cited from earlier work.

For the compound `C[N+](C)(C)CCOC(N)=O` [carbachol, Carbachol], the “effect on cellular levels of IP3” value in test [1] was “stimulatory effect”.
In the case of `O=P(O)(O)O[C@@H]1[C@H](O)[C@H](O)[C@@H](OP(=O)(O)O)[C@H](OP(=O)(O)O)[C@H]1O` [IP3, Inositol 1,4,5-trisphosphate], the Kd in test [2] is 200 nM.
